Holding throughout (assay): relative viability (nuclei count vs DMSO), 5 days (fraction); higher = more cells survive
Compound in the experiment “Bleomycin + Tozasertib”: CC1=C(N=C(N=C1N)[C@H](CC(=O)N)NC[C@@H](C(=O)N)N)C(=O)N[C@@H]([C@H](C2=CN=CN2)OC3C(C(C(C(O3)CO)O)O)OC4C(C(C(C(O4)CO)O)OC(=O)N)O)C(=O)N[C@H](C)[C@H]([C@H](C)C(=O)N[C@@H]([C@@H](C)O)C(=O)NCCC5=NC(=CS5)C6=NC(=CS6)C(=O)NCCC[S+](C)C)O [Bleomycin] + Cc1cc(Nc2cc(N3CCN(C)CC3)nc(Sc3ccc(NC(=O)C4CC4)cc3)n2)n[nH]1 [Tozasertib] (partner 0.1 µM)
The settings on record: main component drawn. The essentials: (§1)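 Relative viability was taken as the ratio of nuclei in treated wells to nuclei in vehicle wells. Lung cancer cell lines in 1536-well plates received compounds by pin tool one day after seeding, either one drug alone or a fixed anchor-drug dose plus five library-drug doses (not always all listed) in √10 steps. Nuclei were counted on 4× images after 5 days of treatment, and values are medians of duplicate plates.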

Compound in the experiment “Etoposide + Bortezomib”: COc1cc([C@@H]2c3cc4c(cc3[C@@H](O[C@@H]3O[C@@H]5CO[C@@H](C)O[C@H]5[C@H](O)[C@H]3O)[C@H]3COC(=O)[C@H]23)OCO4)cc(OC)c1O [Etoposide] + CC(C)C[C@H](NC(=O)[C@H](Cc1ccccc1)NC(=O)c1cnccn1)B(O)O [Bortezomib] (partner 0.002 µM)
The essentials:
as §1

Compound in the experiment “Etoposide + Foretinib”: COc1cc([C@@H]2c3cc4c(cc3[C@@H](O[C@@H]3O[C@@H]5CO[C@@H](C)O[C@H]5[C@H](O)[C@H]3O)[C@H]3COC(=O)[C@H]23)OCO4)cc(OC)c1O [Etoposide] + COc1cc2c(Oc3ccc(NC(=O)C4(C(=O)Nc5ccc(F)cc5)CC4)cc3F)ccnc2cc1OCCCN1CCOCC1 [Foretinib] (partner 0.25 µM)
The procedure, abridged: as §1

Compound in the experiment “Etoposide + Linsitinib”: COc1cc([C@@H]2c3cc4c(cc3[C@@H](O[C@@H]3O[C@@H]5CO[C@@H](C)O[C@H]5[C@H](O)[C@H]3O)[C@H]3COC(=O)[C@H]23)OCO4)cc(OC)c1O [Etoposide] + C[C@]1(O)C[C@@H](c2nc(-c3ccc4ccc(-c5ccccc5)nc4c3)c3c(N)nccn32)C1 [Linsitinib] (partner 1 µM)
The procedure, abridged: as §1

Consider NCI-H441, for which the relative viability with Bleomycin + Tozasertib (first compound 0.01 µM) was found to be 0.53; with Bleomycin + Tozasertib (first compound 0.03162 µM) it was 0.611; with Bleomycin + Tozasertib (first compound 0.1 µM) it was 0.471; with Bleomycin + Tozasertib (first compound 0.3162 µM) it was 0.332; with Bleomycin + Tozasertib (first compound 1 µM) it was 0.275; with Etoposide + Bortezomib (first compound 0.01 µM), 0.457. The relative viability is 0.469 with Etoposide + Bortezomib (first compound 0.03162 µM); 0.447 with Etoposide + Bortezomib (first compound 0.1 µM); 0.286 in the experiment with Etoposide + Bortezomib (first compound 0.3162 µM); 0.177 in the experiment with Etoposide + Bortezomib (first compound 1 µM); 0.923 with Etoposide + Foretinib (first compound 0.01 µM); 0.838 in the experiment with Etoposide + Foretinib (first compound 0.03162 µM). The relative viability with Etoposide + Foretinib (first compound 0.1 µM) was 0.673; in the experiment with Etoposide + Foretinib (first compound 0.3162 µM) it was 0.363; in the experiment with Etoposide + Foretinib (first compound 1 µM) it was 0.286; with Etoposide + Linsitinib (first compound 0.01 µM), 0.51; with Etoposide + Linsitinib (first compound 0.03162 µM), 0.474; with Etoposide + Linsitinib (first compound 0.1 µM), 0.292. Further, the relative viability stood at 0.179 with Etoposide + Linsitinib (first compound 0.3162 µM) and 0.148 in the experiment with Etoposide + Linsitinib (first compound 1 µM).
NCI-H596: the relative viability was found to be 0.639 with Bleomycin + Tozasertib (first compound 0.01 µM); 0.583 in the experiment with Bleomycin + Tozasertib (first compound 0.03162 µM); 0.468 with Bleomycin + Tozasertib (first compound 0.1 µM); 0.354 in the experiment with Bleomycin + Tozasertib (first compound 0.3162 µM); 0.253 with Bleomycin + Tozasertib (first compound 1 µM); 0.798 with Etoposide + Bortezomib (first compound 0.01 µM). The relative viability with Etoposide + Bortezomib (first compound 0.03162 µM) was determined as 1.1; with Etoposide + Bortezomib (first compound 0.3162 µM), 0.968; in the experiment with Etoposide + Bortezomib (first compound 1 µM), 0.977; with Etoposide + Foretinib (first compound 0.01 µM) it was 0.748; in the experiment with Etoposide + Foretinib (first compound 0.03162 µM) it was 0.833; with Etoposide + Foretinib (first compound 0.1 µM), 1.04. Also, the relative viability is 0.799 with Etoposide + Foretinib (first compound 0.3162 µM); 0.596 in the experiment with Etoposide + Foretinib (first compound 1 µM); 0.86 with Etoposide + Linsitinib (first compound 0.01 µM); 1.13 with Etoposide + Linsitinib (first compound 0.03162 µM); 0.948 with Etoposide + Linsitinib (first compound 0.3162 µM); 0.884 with Etoposide + Linsitinib (first compound 1 µM).
For the cell line ABC-1, the relative viability with Bleomycin + Tozasertib (first compound 0.01 µM) came out at 0.199; with Bleomycin + Tozasertib (first compound 0.03162 µM), 0.209; with Bleomycin + Tozasertib (first compound 0.1 µM) it was 0.197; with Bleomycin + Tozasertib (first compound 0.3162 µM) it was 0.178; in the experiment with Bleomycin + Tozasertib (first compound 1 µM), 0.198; in the experiment with Etoposide + Bortezomib (first compound 0.01 µM), 0.301. The relative viability turned out to be 0.33 with Etoposide + Bortezomib (first compound 0.03162 µM); 0.261 in the experiment with Etoposide + Bortezomib (first compound 0.1 µM); 0.296 in the experiment with Etoposide + Bortezomib (first compound 0.3162 µM); 0.237 in the experiment with Etoposide + Bortezomib (first compound 1 µM); 1.06 with Etoposide + Foretinib (first compound 0.01 µM); 0.951 in the experiment with Etoposide + Foretinib (first compound 0.03162 µM). The relative viability came to 0.65 with Etoposide + Foretinib (first compound 0.1 µM); 0.5 in the experiment with Etoposide + Foretinib (first compound 0.3162 µM); 0.271 with Etoposide + Foretinib (first compound 1 µM); 0.753 with Etoposide + Linsitinib (first compound 0.01 µM); 0.894 in the experiment with Etoposide + Linsitinib (first compound 0.03162 µM); 0.879 with Etoposide + Linsitinib (first compound 0.1 µM). Moreover, the figures for the relative viability with Etoposide + Linsitinib (first compound 0.3162 µM) and in the experiment with Etoposide + Linsitinib (first compound 1 µM) were 0.418 and 0.308, respectively.
Turning to NCI-H1666, the relative viability with Bleomycin + Tozasertib (first compound 0.01 µM) came to 0.4; in the experiment with Bleomycin + Tozasertib (first compound 0.03162 µM) it was 0.462; with Bleomycin + Tozasertib (first compound 0.1 µM) it was 0.458; in the experiment with Bleomycin + Tozasertib (first compound 0.3162 µM), 0.391; with Bleomycin + Tozasertib (first compound 1 µM) it was 0.344; with Etoposide + Bortezomib (first compound 0.01 µM), 0.949. Further, the relative viability in the experiment with Etoposide + Bortezomib (first compound 0.03162 µM) is 0.71; in the experiment with Etoposide + Bortezomib (first compound 0.1 µM), 0.528; in the experiment with Etoposide + Bortezomib (first compound 0.3162 µM), 0.294; with Etoposide + Bortezomib (first compound 1 µM), 0.242; in the experiment with Etoposide + Foretinib (first compound 0.01 µM) it was 0.962; with Etoposide + Foretinib (first compound 0.03162 µM) it was 0.919. In addition, the relative viability amounted to 0.695 with Etoposide + Foretinib (first compound 0.1 µM); 0.42 with Etoposide + Foretinib (first compound 0.3162 µM); 0.461 with Etoposide + Foretinib (first compound 1 µM); 0.906 in the experiment with Etoposide + Linsitinib (first compound 0.01 µM); 0.765 with Etoposide + Linsitinib (first compound 0.03162 µM); 0.523 with Etoposide + Linsitinib (first compound 0.1 µM). Besides, the values for the relative viability in the experiment with Etoposide + Linsitinib (first compound 0.3162 µM) and in the experiment with Etoposide + Linsitinib (first compound 1 µM) were 0.362 and 0.333, respectively.
For the cell line NCI-H1993, the relative viability with Bleomycin + Tozasertib (first compound 0.01 µM) stood at 0.505; with Bleomycin + Tozasertib (first compound 0.03162 µM) it was 0.501; with Bleomycin + Tozasertib (first compound 0.1 µM) it was 0.551; with Bleomycin + Tozasertib (first compound 0.3162 µM), 0.575; with Bleomycin + Tozasertib (first compound 1 µM), 0.539; in the experiment with Etoposide + Bortezomib (first compound 0.01 µM), 0.954. The relative viability with Etoposide + Bortezomib (first compound 0.03162 µM) amounted to 1.12; with Etoposide + Bortezomib (first compound 0.1 µM), 0.631; with Etoposide + Bortezomib (first compound 0.3162 µM) it was 0.919; with Etoposide + Bortezomib (first compound 1 µM), 0.473; with Etoposide + Foretinib (first compound 0.01 µM) it was 0.788; with Etoposide + Foretinib (first compound 0.03162 µM), 0.906. Also, the relative viability with Etoposide + Foretinib (first compound 0.1 µM) is 0.557; with Etoposide + Foretinib (first compound 0.3162 µM) it was 0.733; with Etoposide + Foretinib (first compound 1 µM), 0.51; with Etoposide + Linsitinib (first compound 0.01 µM), 0.81; in the experiment with Etoposide + Linsitinib (first compound 0.03162 µM), 0.692; in the experiment with Etoposide + Linsitinib (first compound 0.1 µM), 0.7. Moreover, the relative viability in the experiment with Etoposide + Linsitinib (first compound 0.3162 µM) is 0.662; in the experiment with Etoposide + Linsitinib (first compound 1 µM), 0.537.
Consider NCI-H1975, for which the relative viability with Bleomycin + Tozasertib (first compound 0.01 µM) came out at 0.485; with Bleomycin + Tozasertib (first compound 0.03162 µM), 0.466; in the experiment with Bleomycin + Tozasertib (first compound 0.1 µM) it was 0.42; in the experiment with Bleomycin + Tozasertib (first compound 0.3162 µM) it was 0.152; in the experiment with Bleomycin + Tozasertib (first compound 1 µM), 0.0955; with Etoposide + Bortezomib (first compound 0.01 µM) it was 0.402. Moreover, the relative viability in the experiment with Etoposide + Bortezomib (first compound 0.03162 µM) came out at 0.386; with Etoposide + Bortezomib (first compound 0.1 µM), 0.411; with Etoposide + Bortezomib (first compound 0.3162 µM), 0.322; with Etoposide + Bortezomib (first compound 1 µM), 0.177; with Etoposide + Foretinib (first compound 0.01 µM), 0.914; with Etoposide + Foretinib (first compound 0.03162 µM) it was 0.938. The relative viability in the experiment with Etoposide + Foretinib (first compound 0.1 µM) was 0.895; with Etoposide + Foretinib (first compound 0.3162 µM) it was 0.91; with Etoposide + Foretinib (first compound 1 µM), 0.286; with Etoposide + Linsitinib (first compound 0.01 µM), 0.973; with Etoposide + Linsitinib (first compound 0.03162 µM), 1.07; in the experiment with Etoposide + Linsitinib (first compound 0.1 µM) it was 0.902. The relative viability with Etoposide + Linsitinib (first compound 0.3162 µM) amounted to 0.67; in the experiment with Etoposide + Linsitinib (first compound 1 µM) it was 0.345.

(Values after the supplement of paper PMC10307832.)
